{"source": "paper PMC4855509", "about": "(Photochemistry and photobiology, 2014)", "origin": "cited, not measured here"}
{"substance": "carboxy-tetramethylrhodamine [TMR]", "values": [{"measurement": "triplet state quantum yield", "value": "0.001–0.003"}]}
